Patent US20250011316A1, “PEROXIREDOXIN 3 INHIBITORS AND METHODS OF USE FOR TREATING CANCER” (Wake Forest University Health Sciences, priority 2022, published 2025)
Converted amounts (≈) assume the structure as drawn.

What was measured:
purified human PRX3 = molecular target: T1, purified human PRX3 (Homo sapiens, UniProt P30048); experiment: Biochemical PRX3 Inhibition Assay (non-reducible crosslink by SDS PAGE + single adduct by MALDI-TOF MS); conditions: 100 μM PRX3 with TRX2/thioredoxin reductase/NADPH system and hydrogen peroxide, 1-2 hr at 37° C.
T1 construct: made in house
T1 sequence (P30048 62-256): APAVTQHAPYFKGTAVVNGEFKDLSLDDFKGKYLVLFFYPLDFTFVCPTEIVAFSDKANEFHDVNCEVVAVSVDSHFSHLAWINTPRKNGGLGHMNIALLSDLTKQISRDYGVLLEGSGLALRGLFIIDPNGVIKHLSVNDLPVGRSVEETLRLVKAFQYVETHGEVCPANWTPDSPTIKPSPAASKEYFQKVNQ
Description: The compounds described herein generally react with two essential cysteine residues in the mitochondrial peroxidase PRX3, leading to the formation of a non-reducible, covalent crosslink of two PRX3 monomers. This crosslink inactivates PRX3. Increased PRX3 crosslink is associated with mitochondrial stress, increased cell death in cell models of malignant mesothelioma and is associated with decreased tumor volume in a mouse model. Cunniff et al. (2015) PloS one 10, e0127310.
(§1) To test the activity of compounds, two complimentary assays were used as described below. The Biochemical PRX3 Inhibition Assay tests the ability of each compound to crosslink PRX3 in a simple, in vitro system. In the Cellular Activity Assay, we are testing the ability of compounds to kill SK—OV-3 ovarian cancer cells.
This assay tests the ability of each compound to form a covalent adduct with PRX3. The assay is performed as described in Nelson et al. (2021) Antioxidants (Basel) 10, 150; and Cunniff et al. (2015) PloS one 10, e0127310, and follows the appearance of non-reducible PRX3 crosslinks by SDS PAGE gel electrophoresis and follows the appearance of single PRX3 adducts by mass spectrometry. For this assay, purified human PRX3, hydrogen peroxide (the PRX3 substrate) and all the components required to enable PRX3 to catalytically cycle (thioredoxin-thioredoxin reductase-NAPDH system) are included (details below).
The biochemical PRX3 Inhibition assay contains 100 μM PRX3, 50 μM human TRX2, 0.5 μM mouse thioredoxin reductase, and a NADPH regenerating system composed of 3.2 mM glucose 6-phosphate, 3.2 U/ml glucose 6-phosphate dehydrogenase and 0.4 mM NADPH. Samples are incubated for 1-2 hr at 37° C. with either 0.2 mM TS (positive control), compounds or an equivalent volume of DMSO (negative control). During this incubation, hydrogen peroxide is added to induce turnover of PRX3. Reactions are stopped by the addition of a buffer containing 100 mM dithiothreitol (to break disulfide bonds) and SDS (detergent to denature proteins). NADPH, Glucose 6-Phosphate, and glucose 6-phosphate dehydrogenase were purchased from Sigma Aldrich. PRX3, thioredoxin, and thioredoxin reductase were all purified to >98% purity in the Lowther laboratory according to protocols referenced in Nelson et al. (2021) Antioxidants (Basel) 10, 150; and Cunniff et al. (2015) PloS one 10, e0127310.
To measure the amount of PRX3 crosslink, proteins in the reaction were separated by SDS-polyacrylamide gel electrophoresis and stained for total protein using GelCode Blue (Life Technologies). The amount of unmodified PRX3 and TS-PRX3 crosslink was measured by densiometric analysis of the signal for the PRX3 band running at the MW of a PRX3 crosslink (˜46 kDa) compared to the PRX3 signal at the MW of the un-modified PRX3 (−23 kD).
To measure covalent adduct formation on a single PRX3 monomer, each reaction was exchanged into a mass spectrometry compatible buffer containing 40 mM ammonium citrate, pH 8.3 made in HPLC water. Sample was mixed 1:1 with a matrix solution containing 30 mg/mL sinapinic acid in 70% (vol/vol) acetonitrile, 0.2% formic acid and spotted to onto the sample plate. PRX3 mass was measured by MALDI-TOF MS analysis on a Bruker Daltonics MALDI-TOF MS spectrometer. Spectra were analyzed in FLEXAnalysis Software. The intensity of the reduced PRX3 peak (SH) and intensity of the analog adduct peak was determined and corrected for background signal at the adduct peak in the DMSO control. The fraction of single analog adduct in the monomer peak was determined by dividing the intensity of the adduct peak by the summed intensity of the SH and adduct peaks.

[1] = test system: human SK—OV-3 ovarian cancer cells; experiment: Cellular Activity Assay (cytotoxicity, crystal violet); type: cell-based; conditions: Homo sapiens, SK—OV-3 cells, treated for 48 hr, 0.1-100 μM, crystal violet absorbance at 540 nm
Description: as §1
The Cellular Activity Assay measures the EC50 of each compound in human SK—OV-3 ovarian cancer cells TS to be taken into the cell, transported to the mitochondria, and crosslink PRX3.
The cytotoxicity of compounds was measured as described in Nelson et al. (2021) Antioxidants (Basel) 10, 150; Cunniff et al. (2015) PloS one 10, e0127310; and Newick et al. (2012) PloS one 7, e39404. SK—OV-3 is an adherent, epithelial, adenocarcinoma cell line obtained from ATCC (ref #: HTB-77). SK—OV-3 cells are resistant to the commonly used chemotherapeutics, cis-platinum and doxorubicin. For this […], SK—OV-3 cells were plated in a 96-well plate. After 24 h recovery, the cells were treated for 48 hr with multiple concentrations of each compound ranging from 0.1-100 μM.
Cells were washed with PBS to remove dead cells and the remaining live cells were fixed with 3.0% formaldehyde and stained with 0.1% crystal violet. The amount of crystal violet was determined by reading the absorbance at 540 nm (crystal violet dye dissolved in 100% methanol) using a plate reader. The signal for crystal violet dye is proportional to the biomass of remaining live cells. GraphPad Prism9 software was used to calculate the effective inhibitory concentration (EC50) of test compounds. Results for each compound, are normalized to the amount of cells in control wells treated with the equivalent concentration of DMSO (negative control). TS or Compound 4 were included in each set of assays as a positive control.

[2] = test system: Enterococcus hirae (ATCC #10541); experiment: Antimicrobial Activity Assay (MIC / growth inhibition); type: cell-based; conditions: ATCC10541; Enterococcus hirae; analogs tested at 20 μM final concentration
Protocol: The overnight growth was then diluted into growth media to make a single solution of E. hirae with a final optical density at 600 nm=0.02 AU. A 20 mM stock solution of Thiostrepton in DMSO was made and used to make multiple dilutions of TS in DMSO. Each TS dilution (0.1 mL) was then added to a test tube containing 10 mL of the diluted E. hirae and grown at 37° C. overnight while shaking at 180 rpm. The next morning, each tube was visually inspected to determine if the cells grew. Final concentrations tested were 0.120, 0.090, 0.075, 0.060, 0.045, 0.030, and 0.015 μM TS. […] Three replicates were made on three separate days (n=9). […] For TS analogs, the dilute E. hirae was treated with 20 μM final concentration of each analog (three replicates each). […] DMSO was used as a positive control (complete cell growth) and 20 μM thiostrepton was used as a negative control.

Solubility Assay (HPLC) = type: physicochemical; conditions: HEPES/NaCl buffer, aqueous with cosolvent or surfactant or cyclodextrin, kinetic from dmso stock; 20 mM HEPES, 100 mM NaCl, pH 7.5, 18-24 hours at ambient temperature; read-out: Solubility
Protocol: A 20 mM stock solution was made for each compound in DMSO. To measure solubility, 0.03-0.05 mL of the stock was added to 0.27 mL 20 mM HEPES, 100 mM NaCl, pH 7.5. The solution was mixed and rotated 18-24 hours at ambient temperature. The next day, solutions were centrifuged for 10 min at 20,000×g at […] to remove insoluble, solid material. Next, 100 μL of the supernatant containing the soluble compound was added to 900 μL DMSO and High Performance Liquid Chromatography was performed as described in Table 1 and either HIPLC gradient 1 (Table 2) or HIPLC gradient 2 (Table 3). For each analog, a 200 μM standard and a 20 μM standard were prepared and run in parallel (standards were dissolved completely in […]). The amount ofLcompound in the experimental sample was calculated by comparing the area under the curve for compound peak to the area for the closest standard and correcting for dilution.

SMILES | PRX3 Inhibition (Crosslink + Mono-adduct) (purified human PRX3) | MIC [2] [µM] | solubility (Solubility Assay (HPLC)) [µM] | EC50 [1] [µM] | EC50 ([1]; SK-OV-3, 48 h) [µM]
C=C(NC(=O)c1csc(C2CCN(C(=O)OC(C)(C)C)CC2)n1)C(=O)NC(=C)C(=O)OC [Compound 1, Tert-butyl 4-(4-((3-((3-methoxy-3-oxoprop-1-en-2-yl)amino)-3-oxoprop-1-en-2-yl)carbamoyl)thiazol-2-yl)piperidine-1-carboxylate] | ++ (50-90%) | > 20 | 100 to 1000 (≈ 46.5 to 465 µg/mL) | 1 to 10 | 
C=C(NC(=O)c1csc(-c2ccc(NC(=O)OC(C)(C)C)nc2)n1)C(=O)NC(=C)C(=O)OC [Compound 2, Methyl 2-(2-(2-(6-((tert-butoxycarbonyl)amino)pyridine-3-yl)thiazole-4-carboxamido)acrylamido acrylate] | ++ (50-90%) | > 20 | < 100 |  | 1 to 10
C=C(NC(=O)c1csc(C2CCCN(C(=O)OC(C)(C)C)C2)n1)C(=O)NC(=C)C(=O)OC (centres unmarked) [Compound 3, Tert-butyl 3-(4-((3-((3-methoxy-3-oxoprop-1-en-2-yl)amino)-3-oxoprop-1-en-2-yl)carbamoyl)thiazol-2-yl)piperidine-1-carboxylate] | ++ (50-90%) | > 20 | 100 to 1000 (≈ 46.5 to 465 µg/mL) | 10 to 25 | 
C=C(NC(=O)c1csc(-c2ccc(NC(=O)OC(C)(C)C)cc2)n1)C(=O)NC(=C)C(=O)OC [Compound 5, Methyl 2-(2-(2-(4-((tert-butoxycarbonyl)amino)phenyl)thiazole-4-carboxamido)acrylamido)acrylate] | +++ (>90%) | > 20 | < 100 | 1 to 10 | 
C=C(NC(=O)c1csc(-c2ccc(CNC(=O)OC(C)(C)C)cc2)n1)C(=O)NC(=C)C(=O)OC [Compound 8, Methyl 2-(2-(2-(4-(((tert-butoxycarbonyl)amino)methyl)phenyl)thiazole-4-carboxamido)acrylamido)acrylate] | +++ (>90%) | > 20 | < 100 | 1 to 10 | 
C=C(NC(=O)c1csc(N2CCC[C@@H](NC(=O)OC(C)(C)C)C2)n1)C(=O)NC(=C)C(=O)OC [Compound 11, Methyl (R)-2-(2-(2-(3-((tert-butoxycarbonyl)amino)piperidin-1-yl)thiazole-4-carboxamido)acrylamido)acrylate] | +++ (>90%) | > 20 | < 100 | 1 to 10 | 

Further lines, with some results ahead:

PRX3 Inhibition (Crosslink + Mono-adduct) (purified human PRX3) | MIC [2] [µM] | solubility (Solubility Assay (HPLC)) [µM] | SMILES | EC50 [1] [µM] | EC50 ([1]; SK-OV-3, 48 h) [µM]
++ (50-90%) | > 20 | < 100 | C=C(NC(=O)c1csc(-c2ccc(NC(=O)CCCCCBr)cc2)n1)C(=O)NC(=C)C(=O)OC [Compound 4, Methyl 2-(2-(2-(4-(6-bromohexanamido)phenyl)thiazole-4-carboxamido)acrylamido)acrylate] | 1 to 10 | 
+++ (>90%) | > 20 | < 100 | C=C(NC(=O)c1csc(-c2ccc(C(=O)NCCCCCCOS(C)(=O)=O)nc2)n1)C(=O)NC(=C)C(=O)OC [Compound 6, Methyl 2-(2-(2-(6-((6-((methylsulfonyl)oxy)hexyl)carbamoyl)pyridine-3-yl)thiazole-4-carboxamido)acrylamido)acrylate] | 1 to 10 | 
++ (50-90%) | > 20 | < 100 | C=C(NC(=O)c1csc(-c2ccc(OC)cc2)n1)C(=O)NC(=C)C(=O)OC [Compound 7, Methyl 2-(2-(2-(4-methoxyphenyl)thiazole-4-carboxamido)acrylamido)acrylate] | 1 to 10 | 
+++ (>90%) | > 20 | < 100 | C=C(NC(=O)c1csc(C2=CCN(C(=O)OC(C)(C)C)CC2)n1)C(=O)NC(=C)C(=O)OC [Compound 9, Tert-butyl 4-(4-((3-((3-methoxy-3-oxoprop-1-en-2-yl)amino)-3-oxoprop-1-en-2-yl)carbamoyl)thiazol-2-yl)-3,6-dihydropyridine-1(2H)-carboxylate] | 1 to 10 | 
+++ (>90%) | > 20 | < 100 | C=C(NC(=O)c1csc(-c2ccc(C(=O)NCCOC)cc2)n1)C(=O)NC(=C)C(=O)OC [Compound 10, Methyl 2-(2-(2-(4-((2-methoxyethyl)carbamoyl)phenyl)thiazole-4-carboxamido)acrylamido)acrylate] | 1 to 10 | 
